Laboratory results: patent publication EP0734259B1, “Use of piperidine compounds in the treatment of schizophrenia” (NOVO NORDISK A/S, priority 1993, dated 1995)
Where a name gives a salt, the structure may show the parent alone.

What follows are compounds tested on rats (assay: Conditioned avoidance behavior in rats). Details: 3.0 mg/kg s.c. 30 min before the session, active if % avoidance reduced to at least 50%.
Type: in vivo, rat
From the text: In a conditioned avoidance test, animals learn to respond during a conditioned stimulus in order to avoid mild shock presentation. A response during the conditioned stimulus is termed an avoidance respone, a response during shock is termed an escape response; a response failure is when the animal fails to respond during either the conditioned stimlus or the shock presentation and is indicative of motor impairment. Animals rapidly learn to avoid 99% of the time. Antipsychotic drugs decrease the percentage of avoidance responses without interfering with the ability of the animal to respond since the animals do emit escape responses. The percentage of response failures is considered a measure of motor impairment.
Rats were required to press a response lever in an experimental chamber in order to avoid or escape foot-shock. Each experimental session consisted of 50 trials. During each trial, the chamber was illuminated and a tone presented for a maximum of 10 sec. A response during the tone immediately terminated the tone and the houselight, ending the trial. In the absence of a response during the tone alone, tone+foot-shock (2.0 mA) was presented for a maximum of 10 sec. A response during shock presentation immediately terminated the shock, the tone and the houselight, ending the trial.
For drug screening, a dose of 3.0 mg/kg was administered s.c. 30 min before the start of the experimental session. A drug was considered active if it reduced the % avoidance responding to at least 50% without producing greater than 50% response failures. For active drugs, a dose-response curve was subsequently determined.
In the case of CCOc1nsnc1C1=CCCN(C)C1.O=C(O)C(=O)O [Compound 2, 3-(3-Ethoxy-1,2,5-thiadiazol-4-yl)-1,2,5,6-tetrahydro-1-methylpyridine oxalate], the “Conditioned Avoidance % Avoidance Responses” value is reported as 70%.
In the case of CCSc1nsnc1C1=CCCN(C)C1.O=C(O)C(=O)O [Compound 65, 3-(3-Ethylthio-1,2,5-thiadiazol-4-yl)-1,2,5,6-tetrahydro-1-methylpyridine oxalate], the “Conditioned Avoidance % Avoidance Responses” value is reported as 69%.
With COc1nsnc1C1=CCCN(C)C1.O=C(O)C(=O)O [Compound 1, 1,2,5,6-Tetrahydro-3-(3-methoxy-1,2,5-thiadiazol-4-yl)-1-methylpyridine oxalate] the “Conditioned Avoidance % Avoidance Responses” value was 97%.
With CCSc1nsnc1C1=CCCNC1.Cl [Compound 216, 3-(3-Ethylthio-1,2,5-thiadiazol-4-yl)-1,2,5,6-tetrahydropyridine hydrochloride] the “Conditioned Avoidance % Avoidance Responses” value was 12%.
With CCOc1nsnc1C1=CCCNC1.Cl [Compound 215, 3-(3-Ethoxy-1,2,5-thiadiazol-4-yl)-1,2,5,6-tetrahydropyridine hydrochloride] the “Conditioned Avoidance % Avoidance Responses” value was 61%.
For CCCCSc1nsnc1C1=CCCN(C)C1.O=C(O)C(=O)O [Compound 48, 3-(3-Butylthio-1,2,5-thiadiazol-4-yl)-1,2,5,6-tetrahydro-1-methylpyridine oxalate], the “Conditioned Avoidance % Avoidance Responses” value was 57%.
CCCOc1nsnc1C1=CCCN(C)C1.O=C(O)C(=O)O [Compound 3, 1,2,5,6-Tetrahydro-1-methyl-3-(3-propoxy-1,2,5-thiadiazol-4-yl)pyridine oxalate] was tested, and the “Conditioned Avoidance % Avoidance Responses” value was 71%.
For Cl.FC(F)(F)COc1nsnc1C1=CCCNC1 [Compound 223, 3-(3-(2,2,2-Trifluoroethoxy)-1,2,5-thiadiazol-4-yl)-1,2,5,6-tetrahydropyridine hydrochloride], the “Conditioned Avoidance % Avoidance Responses” value was 31%.
In the case of CCCCOc1nsnc1C1=CCCN(C)C1.O=C(O)C(=O)O [Compound 4, 3-(3-Butoxy-1,2,5-thiadiazol-4-yl)-1,2,5,6-tetrahydro-1-methylpyridine oxalate], the “Conditioned Avoidance % Avoidance Responses” value is reported as 74%.
In the case of CSc1nsnc1C1=CCCN(C)C1.O=C(O)C(=O)O [Compound 49, 3-(3-Methylthio-1,2,5-thiadiazol-4-yl)-1,2,5,6-tetrahydro-1-methylpyridine oxalate], the “Conditioned Avoidance % Avoidance Responses” value is reported as 37%.
In the case of CN1CCC=C(c2nsnc2SCCSc2cccs2)C1 [Compound 228, 3-(3-(2-(2-Thienylthio)ethylthio))-1,2,5-thiadiazol-4-yl)-1,2,5,6-tetrahydro-1-methylpyridine oxalate], the “Conditioned Avoidance % Avoidance Responses” value is reported as 92%.
For CCCSc1nsnc1C1=CCCNC1.O=C(O)C(=O)O [Compound 217, 3-(3-Propylthio-1,2,5-thiadiazol-4-yl)-1,2,5,6-tetrahydropyridine oxalate], the “Conditioned Avoidance % Avoidance Responses” value was 30%.
CCCCSc1nsnc1C1=CCCNC1.O=C(O)C(=O)O [Compound 218, 3-(3-Butylthio-1,2,5-thiadiazol-4-yl)-1,2,5,6-tetrahydropyridine oxalate] was tested, and the “Conditioned Avoidance % Avoidance Responses” value was 39%.
In the case of CCCCCCSc1nsnc1C1=CCCNC1 [Compound 220, 3-(3-Hexylthio-1,2,5-thiadiazol-4-yl-1,2,5,6-tetrahydropyridine oxalate], the “Conditioned Avoidance % Avoidance Responses” value is reported as 88%.
In the case of Cl.FC(F)(F)CSc1nsnc1C1=CCCNC1 [Compound 222, 3-(3-(2,2,2-Trifluoroethylthio)-1,2,5-thiadiazol-4-yl)-1,2,5,6-tetrahydropyridine hydrochloride], the “Conditioned Avoidance % Avoidance Responses” value is reported as 0%.
For CCCCCSc1nsnc1C1=CCCNC1.O=C(O)C(=O)O [Compound 219, 3-(3-Pentylthio-1,2,5-thiadiazol-4-yl)-1,2,5,6-tetrahydropyridine oxalate], the “Conditioned Avoidance % Avoidance Responses” value was 79%.
CCCSc1nsnc1C1=CCCN(C)C1.O=C(O)C(=O)O [Compound 47, 3-(3-Propylthio-1,2,5-thiadiazol-4-yl)-1,2,5,6-tetrahydro-1-methylpyridine oxalate] was tested, and the “Conditioned Avoidance % Avoidance Responses” value was 49%.
With CCCCCSc1nsnc1C1=CCCN(C)C1.O=C(O)C(=O)O [Compound 66, 3-(3-Pentylthio-1,2,5-thiadiazol-4-yl)-1,2,5,6-tetrahydro-1-methylpyridine oxalate] the “Conditioned Avoidance % Avoidance Responses” value was 87%.

The compounds below were run against muscarinic receptors (assay: ^3H-oxotremorine-M binding assay (inhibition of binding to cerebral cortical membranes)). Details: 3 nM ^3H-oxotremorine-M, rat cerebral cortical membranes, 15 minutes at 25°C, read-out: Inhibition of ^3H-Oxo.
Protocol: The affinity of the compounds for the muscarinic receptors was determined using the non-selective agonist ligand, ^3H-oxotremorine-M. Birdsdall N.J.M., Hulme E.C., and Burgen A.S.V., "The Character of Muscarinic Receptors in Different Regions of the Rat Brain", 207 Proc. Roy. Soc. 1 (London, Series B, 1980). Each compound was tested to determine the affinity of the compound for the muscarinic receptors using the following procedure.
For each in vitro binding, male Sprague-Dawley (Harlan Sprague-Dawley, Indianapolis, IN) rats weighing from about 100 to about 150 grams each were sacrificed by decapitation. The brains were quickly removed and the cerebral cortex were dissected from the brain. The cerebral cortex tissue was homogenized in 10 volumes of 0.32 M sucrose and […] at about 1000 x g. The supernatant was centrifuged at about 12,000 x g for about 10 minutes and the resulting pellet was resuspended in 20 mM tris-CI, pH 7.4. The resuspended pellet was centrifuged again for about 10 minutes at about 50,000 x g. The resulting homogenate was preincubated for about 10 minutes at about 25°C and centrifuged again for about 10 minutes at about 50,000 x g. The pellet was resuspended at 1 gram of pellet per 3 ml of buffer and frozen at about -80°C until used.
The aforementioned homogenates mixture was incubated for about 15 minutes at about 25°C and then the homogenates were filtered through glass filters (Whatman, GF/C) with vacuum. The filters were washed 3 times with about 2 ml of cold tris-CI buffer, and placed in scintillation vials containing about 10 ml of scintillation fluid (Ready Protein+, Beckman, Fullerton, CA). Radioactivity trapped on the filters was determined by liquid scintillation spectrometry. Nonspecific binding was determined using 1 µM atropine. […] DeLean, A. et al. Am. J. Physiol., 235, (1978).
CCOc1nsnc1C1=CCCN(C)C1.O=C(O)C(=O)O [Compound 2, 3-(3-Ethoxy-1,2,5-thiadiazol-4-yl)-1,2,5,6-tetrahydro-1-methylpyridine oxalate] was tested, and the IC50 was 5.7 nM.
CCSc1nsnc1C1=CCCN(C)C1.O=C(O)C(=O)O [Compound 65, 3-(3-Ethylthio-1,2,5-thiadiazol-4-yl)-1,2,5,6-tetrahydro-1-methylpyridine oxalate] gave an IC50 of 1.9 nM.
COc1nsnc1C1=CCCN(C)C1.O=C(O)C(=O)O [Compound 1, 1,2,5,6-Tetrahydro-3-(3-methoxy-1,2,5-thiadiazol-4-yl)-1-methylpyridine oxalate] showed an IC50 of 22 nM.
With CCSc1nsnc1C1=CCCNC1.Cl [Compound 216, 3-(3-Ethylthio-1,2,5-thiadiazol-4-yl)-1,2,5,6-tetrahydropyridine hydrochloride] the IC50 was 6.5 nM.
CCOc1nsnc1C1=CCCNC1.Cl [Compound 215, 3-(3-Ethoxy-1,2,5-thiadiazol-4-yl)-1,2,5,6-tetrahydropyridine hydrochloride] showed an IC50 of 10.5 nM.
CCCCSc1nsnc1C1=CCCN(C)C1.O=C(O)C(=O)O [Compound 48, 3-(3-Butylthio-1,2,5-thiadiazol-4-yl)-1,2,5,6-tetrahydro-1-methylpyridine oxalate] gave an IC50 of 1.7 nM.
Compound CCCOc1nsnc1C1=CCCN(C)C1.O=C(O)C(=O)O [Compound 3, 1,2,5,6-Tetrahydro-1-methyl-3-(3-propoxy-1,2,5-thiadiazol-4-yl)pyridine oxalate] has an IC50 of 1.6 nM.
With Cl.FC(F)(F)COc1nsnc1C1=CCCNC1 [Compound 223, 3-(3-(2,2,2-Trifluoroethoxy)-1,2,5-thiadiazol-4-yl)-1,2,5,6-tetrahydropyridine hydrochloride] the IC50 was 7.4 nM.
Compound CCCCOc1nsnc1C1=CCCN(C)C1.O=C(O)C(=O)O [Compound 4, 3-(3-Butoxy-1,2,5-thiadiazol-4-yl)-1,2,5,6-tetrahydro-1-methylpyridine oxalate] has an IC50 of 2 nM.
With CSc1nsnc1C1=CCCN(C)C1.O=C(O)C(=O)O [Compound 49, 3-(3-Methylthio-1,2,5-thiadiazol-4-yl)-1,2,5,6-tetrahydro-1-methylpyridine oxalate] the IC50 was 2.3 nM.
Compound CN1CCC=C(c2nsnc2SCCSc2cccs2)C1 [Compound 228, 3-(3-(2-(2-Thienylthio)ethylthio))-1,2,5-thiadiazol-4-yl)-1,2,5,6-tetrahydro-1-methylpyridine oxalate] has an IC50 of 0.6 nM.
Work on CCCSc1nsnc1C1=CCCNC1.O=C(O)C(=O)O [Compound 217, 3-(3-Propylthio-1,2,5-thiadiazol-4-yl)-1,2,5,6-tetrahydropyridine oxalate] yielded an IC50 of 1.2 nM.
For CCCCSc1nsnc1C1=CCCNC1.O=C(O)C(=O)O [Compound 218, 3-(3-Butylthio-1,2,5-thiadiazol-4-yl)-1,2,5,6-tetrahydropyridine oxalate], the IC50 was 3.5 nM.
With CCCCCCSc1nsnc1C1=CCCNC1 [Compound 220, 3-(3-Hexylthio-1,2,5-thiadiazol-4-yl-1,2,5,6-tetrahydropyridine oxalate] the IC50 was 3 nM.
Cl.FC(F)(F)CSc1nsnc1C1=CCCNC1 [Compound 222, 3-(3-(2,2,2-Trifluoroethylthio)-1,2,5-thiadiazol-4-yl)-1,2,5,6-tetrahydropyridine hydrochloride] gave an IC50 of 0.42 nM.
CCCCCSc1nsnc1C1=CCCNC1.O=C(O)C(=O)O [Compound 219, 3-(3-Pentylthio-1,2,5-thiadiazol-4-yl)-1,2,5,6-tetrahydropyridine oxalate] gave an IC50 of 5.8 nM.
With CCCSc1nsnc1C1=CCCN(C)C1.O=C(O)C(=O)O [Compound 47, 3-(3-Propylthio-1,2,5-thiadiazol-4-yl)-1,2,5,6-tetrahydro-1-methylpyridine oxalate] the IC50 was 0.9 nM.
Compound CCCCCSc1nsnc1C1=CCCN(C)C1.O=C(O)C(=O)O [Compound 66, 3-(3-Pentylthio-1,2,5-thiadiazol-4-yl)-1,2,5,6-tetrahydro-1-methylpyridine oxalate] has an IC50 of 4.8 nM.
